Experimental data taken from paper PMC8648123, “An atypical EhGEF regulates phagocytosis in Entamoeba histolytica through EhRho1” (PLoS Pathogens, 2021).

How the values were obtained:
[1] = target: T1, EhGEF (Entamoeba histolytica, UniProt C4LYE4); assay: tryptophan fluorescence quenching titration; assay type: binding
T1 construct: gene EHI_008090; recombinant protein lacking PH domain (EhGEFΔPH), putative GEF domain

[2] = target: GST-tagged EhRho1 (wild type) (Entamoeba histolytica)

Nc1nc2c(ncn2[C@@H]2O[C@H](COP(=O)(O)OP(=O)(O)OP(=O)(O)O)[C@@H](O)[C@H]2O)c(=O)[nH]1 [GTP]
Kd [1]: 298 µM

B1: HA-tagged EhGEF (full length wild type) (natural protein)
chain: MSEELKISVESLRPALFEGWGKKQGGSVKTWKKRWFVLKDNRLWYFASKTAEEAKGFIELPPGTETKDVSQNKKFMFSINSRNTKGSRVFYIVTENSVDHATFFDAVRKVLNKSSPSSVPAAQSTTPVNVPKAENQFTLQGNNSSTGLSTSTQPVTSTIPPMADAVNIPNSLQPKCDGRKNINKIKAKISWLQVEGENVVEFWKYWMDSTPQSDALEVGQSIQFMLVVSGNTEKLSWRVFGPQGALIQNMVDFFWNVGAPDEEIDHLNNLGCQINPSEIGSWIDMSVMNGMDGGWFFKGDLVCDVIRDTADKCEYAERLITWAKEHGLNYLCQMGRDMGATPPRQSEFRFKLDGVISSRMEKVHSAFTTFGFPPIPVNIVEILTNLPPVYTYFYLCVIVSSEGFVKISILVPAPKQDVVDAFLFAMSDVKDTHIALHKDITNTLGNTPLFVEYCYLNPGYGYEVYKEGADVLVHYNLGSESR
MANT-GDP dissociation from recombinant EhRho1 in presence of HA-EhGEF, compared with HsRhoA and EhRab1a [2]: 2 fold
